# From patent US7553966B2, “Glucocorticoid mimetics, methods of making them, pharmaceutical compositions, and uses thereof” (Boehringer Ingelheim Pharmaceuticals, Inc., priority 2002, dated 2009)
# Target: T1, human glucocorticoid receptor (GR) complex (Homo sapiens, UniProt P04150)
# T1 construct: made in house; host or cells: insect expression system (baculovirus lysate)
# T1 sequence (P04150 1-777): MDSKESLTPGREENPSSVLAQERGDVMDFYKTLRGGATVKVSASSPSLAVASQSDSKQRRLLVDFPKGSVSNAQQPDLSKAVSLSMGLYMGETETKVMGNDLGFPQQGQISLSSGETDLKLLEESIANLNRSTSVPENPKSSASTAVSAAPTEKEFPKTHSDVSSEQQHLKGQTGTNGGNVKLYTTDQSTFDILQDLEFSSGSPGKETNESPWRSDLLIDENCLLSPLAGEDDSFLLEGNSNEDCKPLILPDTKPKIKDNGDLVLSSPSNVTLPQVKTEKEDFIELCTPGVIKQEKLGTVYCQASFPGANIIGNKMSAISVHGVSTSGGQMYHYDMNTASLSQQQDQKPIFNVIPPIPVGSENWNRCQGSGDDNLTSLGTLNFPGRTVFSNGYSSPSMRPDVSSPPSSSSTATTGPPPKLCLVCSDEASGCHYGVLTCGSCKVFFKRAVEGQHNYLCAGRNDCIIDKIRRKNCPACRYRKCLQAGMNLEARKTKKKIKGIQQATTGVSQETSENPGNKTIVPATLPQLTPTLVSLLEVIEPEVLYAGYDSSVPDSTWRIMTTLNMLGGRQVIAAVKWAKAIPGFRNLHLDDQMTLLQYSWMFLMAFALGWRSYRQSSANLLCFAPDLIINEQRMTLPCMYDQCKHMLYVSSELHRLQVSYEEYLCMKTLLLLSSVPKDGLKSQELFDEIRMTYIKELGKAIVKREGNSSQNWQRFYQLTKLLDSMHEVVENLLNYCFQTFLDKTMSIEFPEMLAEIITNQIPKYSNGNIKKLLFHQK
# Test: Glucocorticoid Receptor Competitive Binding Assay (fluorescence polarization, TAMRA-labeled dexamethasone probe)
# Conditions: qualitative statement; competition with TAMRA-labeled dexamethasone
# Description: Compounds of the invention were evaluated for binding to the steroid receptor by a fluorescence polarization competitive binding assay.
# A. Glucocorticoid Receptor Competitive Binding Assay
# Step 1. Characterization of the Fluorescent Probe
# The wavelengths for maximum excitation and emission of the fluorescent probe should first be measured. An example of such a probe is rhodamine (TAMRA)-labeled dexamethasone.
# The affinity of the probe for the steroid receptor was then determined in a titration experiment. The fluorescence polarization value of the probe in assay buffer was measured on an SLM-8100 fluorometer using the excitation and emission maximum values described above. Aliquots of expression vector lysate were added and fluorescence polarization was measured after each addition until no further change in polarization value was observed. Non-linear least squares regression analysis was used to calculate the dissociation constant of the probe from the polarization values obtained for lysate binding to the probe.
# Step 2. Screening for Inhibitors of Probe Binding
# This assay uses fluorescence polarization (FP) to quantitate the ability of test compounds to compete with tetramethyl rhodamine (TAMRA)-labeled dexamethasone for binding to a human glucocorticoid receptor (GR) complex prepared from an insect expression system. The assay buffer was: 10 mM TES, 50 mM KCl, 20 mM Na2MoO4. 2H2O, 1.5 mM EDTA, 0.04% w/v CHAPS, 10% v/v glycerol, 1 mM dithiothreitol, pH 7.4. Test compounds were dissolved to 1 mM in neat DMSO and then further diluted to 10× assay concentration in assay buffer supplemented with 10% v/v DMSO. Test compounds were serially diluted at 10× assay concentrations in 10% DMSO-containing buffer in 96-well polypropylene plates. […] Positive controls were reaction mixtures containing no test compound; negative controls (blanks) were reaction mixtures containing 0.7 μM to 2 μM dexamethasone. […] IC50 values were determined by iterative non-linear curve fitting of the FP signal data to a 4-parameter logistic equation.
row,Structure (SMILES),activity in the GR binding assay
1,"CC(C)(CC(O)(Cc1cc2cc(C#N)ccc2[nH]1)C(F)(F)F)c1cccc2c1OCC2 (stereo not shown) [2-[4-(2,3-Dihydrobenzofuran-7-yl)-2-hydroxy-4-methyl-2-trifluoromethylpentyl]-1H-indole-5-carbonitrile]",potent activity
2,CC(C)(CC(O)(Cc1[nH]c2ccccc2c1C#N)C(F)(F)F)c1cccc(F)c1 (stereo not shown) [2-[4-(3-Fluorophenyl)-2-hydroxy-4-methyl-2-trifluoromethylpentyl]-1H-indole-3-carbonitrile],potent activity
3,CC(C)(CC(O)(Cc1[nH]c2ccccc2c1C#N)C(F)(F)F)c1ccc(F)cc1 (stereo not shown) [2-[4-(4-Fluorophenyl)-2-hydroxy-4-methyl-2-trifluoromethylpentyl]-1H-indole-3-carbonitrile],potent activity
4,COC(=O)c1ccc2[nH]c(CC(O)(CC(C)(C)c3cc(Br)ccc3OC)C(F)(F)F)cc2c1 (stereo not shown) [2-[4-(5-Bromo-2-methoxyphenyl)-2-hydroxy-4-methyl-2-trifluoromethylpentyl]-1H-indole-5-carboxylic acid methyl ester],potent activity
5,COc1ccc(Br)cc1C(C)(C)CC(O)(Cc1cc2c(C)cc(C#N)cc2[nH]1)C(F)(F)F (stereo not shown) [2-[4-(5-Bromo-2-methoxyphenyl)-2-hydroxy-4-methyl-2-trifluoromethylpentyl]-4-methyl-1H-indole-6-carbonitrile],potent activity
6,"CC(C)(CC(O)(Cc1ccnc2ccccc12)C(F)(F)F)c1cccc(O)c1 (stereo not shown) [3-(4,4,4-Trifluoro-3-hydroxy-1,1-dimethyl-3-quinolin-4-ylmethylbutyl)phenol]",potent activity
7,"CC(C)(CC(O)(Cc1cc2ccccc2[nH]1)C(F)(F)F)c1cccc(O)c1 (stereo not shown) [3-[4,4,4-Trifluoro-3-hydroxy-3-(1H-indol-2-ylmethyl)-1,1-dimethylbutyl]phenol]",potent activity
8,"CC(C)(CC(O)(Cc1cc2ccccc2[nH]1)C(F)(F)F)c1ccc2c(c1)CCO2 (stereo not shown) [4-(2,3-Dihydrobenzofuran-5-yl)-1,1,1-trifluoro-2-(1H-indol-2-ylmethyl)-4-methylpentan-2-ol]",potent activity
9,"CC(C)(CC(O)(Cc1ccnc2ccccc12)C(F)(F)F)c1ccc2c(c1)CCO2 (stereo not shown) [4-(2,3-Dihydrobenzofuran-5-yl)-1,1,1-trifluoro-4-methyl-2-quinolin-4-ylmethylpentan-2-ol]",potent activity
10,"Cc1cccc(C)c1C(C)(C)CC(O)(Cc1ccnc2ccccc12)C(F)(F)F (stereo not shown) [4-(2,6-Dimethylphenyl)-1,1,1-trifluoro-4-methyl-2-quinolin-4-ylmethylpentan-2-ol]",potent activity
11,"CCc1cccc(C(C)(C)CC(O)(Cc2ccnc3ccccc23)C(F)(F)F)c1OC (stereo not shown) [4-(3-Ethyl-2-methoxyphenyl)-1,1,1-trifluoro-4-methyl-2-quinolin-4-ylmethylpentan-2-ol]",potent activity
12,COc1ccc(F)cc1C(C)(C)CC(O)(CF)Cc1cc2ccccc2[nH]1 (stereo not shown) [4-(5-Fluoro-2-methoxyphenyl)-2-fluoromethyl-1-(1H-indol-2-yl)-4-methylpentan-2-ol],potent activity
13,"CC(C)(CC(O)(Cc1ccnc2ccccc12)C(F)(F)F)c1cc(Br)cc2c1OCCC2 (stereo not shown) [4-(6-Bromochroman-8-yl)-1,1,1-trifluoro-4-methyl-2-quinolin-4-ylmethylpentan-2-ol]",potent activity
14,"CC(C)(CC(O)(Cc1ccnc2ccccc12)C(F)(F)F)c1cccc2c1OCCC2 (stereo not shown) [4-Chroman-8-yl-1,1,1-trifluoro-4-methyl-2-quinolin-4-ylmethylpentan-2-ol]",potent activity
15,"CC(C)(CC(O)(Cc1cc2ccccc2[nH]1)C(F)(F)F)c1ccc(O)cc1 (stereo not shown) [4-[4,4,4-Trifluoro-3-hydroxy-3-(1H-indol-2-ylmethyl)-1,1-dimethylbutyl]phenol]",potent activity
16,"COc1ccc(F)cc1C(C)(C)CC(O)(Cc1nc2ccccc2[nH]1)C(C)(C)C (stereo not shown) [5-(5-Fluoro-2-methoxyphenyl)-3-(benzimidazol-2-ylmethyl)-2,2,5-trimethylhexan-3-ol]",potent activity
17,"COc1ccc(F)cc1C(C)(C)CC(O)(Cc1cc2ccccc2[nH]1)C(C)C (stereo not shown) [5-(5-Fluoro-2-methoxyphenyl)-3-(indol-2-ylmethyl)-2,5-dimethylhexan-3-ol]",potent activity
18,CCC(O)(Cc1cc2ccccc2[nH]1)CC(C)(C)c1cc(F)ccc1OC (stereo not shown) [5-(5-Fluoro-2-methoxyphenyl)-3-(indol-2-ylmethyl)-5-methylhexan-3-ol],potent activity

# Continued, values first:
row,activity in the GR binding assay,Structure (SMILES)
1,potent activity,"CC(C)(CC(O)(Cc1cc(Cl)nc(Cl)c1)C(F)(F)F)c1cc(F)ccc1O (stereo not shown) [2-[3-(2,6-Dichloropyridin-4-ylmethyl)-4,4,4-trifluoro-3-hydroxy-1,1-dimethylbutyl]-4-fluorophenol]"
2,potent activity,CC(C)(CC(O)(Cc1cc2cc(C#N)ccc2[nH]1)C(F)(F)F)c1cccc(F)c1 (stereo not shown) [2-[4-(3-Fluorophenyl)-2-hydroxy-4-methyl-2-trifluoromethylpentyl]-1H-indole-5-carbonitrile]
3,potent activity,COC(=O)c1ccc2[nH]c(CC(O)(CC(C)(C)c3ccc(F)cc3OC)C(F)(F)F)cc2c1 (stereo not shown) [2-[4-(4-Fluoro-2-methoxyphenyl)-2-hydroxy-4-methyl-2-trifluoromethylpentyl]-1H-indole-5-carboxylic acid methyl ester]
4,potent activity,COC(=O)c1ccc2[nH]c(CC(O)(CC(C)(C)c3cc(F)ccc3OC)C(F)(F)F)cc2c1 (stereo not shown) [2-[4-(5-Fluoro-2-methoxyphenyl)-2-hydroxy-4-methyl-2-trifluoromethylpentyl]-1H-indole-5-carboxylic acid methyl ester]
5,potent activity,"CC(C)(CC(O)(Cc1cc2cccc(F)c2[nH]1)C(F)(F)F)c1cccc2c1OCC2 (stereo not shown) [4-(2,3-Dihydrobenzofuran-7-yl)-1,1,1-trifluoro-2-(7-fluoro-1H-indol-2-ylmethyl)4-methylpentan-2-ol]"
6,potent activity,"CC(C)(CC(O)(Cc1cc2ccccc2[nH]1)C(F)(F)F)c1cc(C#N)cc2c1OCC2 (stereo not shown) [4-(2,3-dihydro-5-cyanobenzofuran-7-yl)-1,1,1-trifluoro-2-(1H-indol-2-ylmethyl)-4-methylpentan-2-ol]"
7,potent activity,"CC(C)(CC(O)(Cc1cc2cccc(F)c2[nH]1)C(F)(F)F)c1cc(F)ccc1O (stereo not shown) [4-Fluoro-2-[4,4,4-trifluoro-3-(7-fluoro-1H-indol-2-ylmethyl)-3-hydroxy-1,1-dimethylbutyl]phenol]"
8,potent activity,"Cc1c(CC(O)(CC(C)(C)c2cc(F)ccc2O)C(F)(F)F)[nH]c2cnccc12 (stereo not shown) [4-Fluoro-2-[4,4,4-trifluoro-3-hydroxy-1,1-dimethyl-3-(3-methyl-1H-pyrrolo[2,3-c]pyridin-2-ylmethyl)butyl]phenol]"
9,potent activity,"CC(C)(CC(O)(Cc1cc2cccc(F)c2[nH]1)C(F)(F)F)c1ccc(F)cc1O (stereo not shown) [5-Fluoro-2-[4,4,4-trifluoro-3-(7-fluoro-1H-indol-2-ylmethyl)-3-hydroxy-1,1-dimethylbutyl]phenol]"
10,potent activity,"CC(C)(CC(O)(Cc1cc2cnccc2[nH]1)C(F)(F)F)c1ccc(F)cc1O (stereo not shown) [5-Fluoro-2-[4,4,4-trifluoro-3-hydroxy-1,1-dimethyl-3-(1H-pyrrolo[3,2-c]pyridin-2-ylmethyl)butyl]phenol]"
